Measured values as given in paper PMC5626944 (Frontiers in Pharmacology, 2017).
Like-named read-outs stand apart in the source and are kept apart here.

Assays:
[1] = biological target: α4β2* nAChRs (Mus musculus, UniProt O70174+Q9ERK7); experiment: biochemical; assay type: biochemical; conditions: for Emax: relative to nicotine; for EC50: read-out: Neurotransmitter release EC50
Method: (§1) Regions of interest were dissected from fresh mouse brains and homogenized in ice-cold isotonic sucrose (0.32 M), buffered with HEPES (5 mM, pH 7.5). The suspension was centrifuged at 12,000 × g for 20 min.
Superfusion proceeded at 0.7 mL/min for 10 min before stimulation with agonist for 20 s. Selected aliquots were perfused with α-CtxMII (50 nM) for 3 min immediately before stimulation. […] Fractions (∼0.1 mL) were collected into 96-well plates at 10 s intervals for 4 min (starting ∼1 min before stimulation).

[2] = system: Glutamate, NMDA Agonist Site (Ionotropic); experiment: NovaScreen competition binding; conditions: 1 µM
[3] = system: Glutamate, Kainate Site (Ionotropic); experiment: NovaScreen competition binding; conditions: 1 µM
[4] = biological target: T1, Low-sensitivity α4(3)β2(2) nAChRs (Mus musculus, UniProt O70174+Q9ERK7); experiment: 86Rb+ efflux from thalamic and cortical synaptosomes, DhβE-insensitive component; assay type: biochemical
T1 construct: from tissue; host or cells: WT mouse thalamic and cortical synaptosomes
Method: as §1

[5] = system: Esterase, Acetylcholine; experiment: NovaScreen enzyme assay; assay type: biochemical; conditions: 1 µM
[6] = system: Glycine, Strychnine-sensitive; experiment: NovaScreen competition binding; conditions: 1 µM
[7] = system: Muscarinic, M4 (h); experiment: NovaScreen competition binding; parameters: species or system human; conditions: 1 µM
[8] = system: Muscarinic, M3 (h); experiment: NovaScreen competition binding; parameters: species or system human; conditions: 1 µM
[9] = system: Norepinephrine Transporter; experiment: NovaScreen competition binding; conditions: 1 µM
[10] = system: Opioid, Mu (h); experiment: NovaScreen competition binding; parameters: species or system human; conditions: 1 µM
[11] = system: T2, Adrenergic, Alpha 1B; experiment: NovaScreen competition binding; conditions: 1 µM
T2 construct: PerkinElmer – Caliper Life Sciences (NovaScreen service)

[12] = system: Dopamine, D3; experiment: NovaScreen competition binding; conditions: 1 µM
[13] = system: Serotonin, 5HT5A (h); experiment: NovaScreen competition binding; parameters: species or system human; conditions: 1 µM
[14] = system: Dopamine Transporter; experiment: NovaScreen competition binding; conditions: 1 µM
[15] = system: T3, Adrenergic, Alpha 2C (h); experiment: NovaScreen competition binding; parameters: species or system human; conditions: 1 µM
T3 construct: PerkinElmer – Caliper Life Sciences (NovaScreen service)

[16] = system: WT mice; experiment: Hot plate assay; assay type: in vivo, mouse; conditions: 0.3 mg/kg ip each, 55°C hot plate, p < 0.05
Method: Mice were again habituated to the experimental room for ≥2 h prior to testing. […] This apparatus is a heated metal plate, maintained at 55°C, enclosed by a clear acrylic plastic cylinder (∼10 cm in diameter), within which the mouse is free to move. […] If the mouse urinates during the assay, it is immediately removed from the hot plate. The time that the mouse remains on the hot plate prior to showing signs of discomfort is recorded. Doses were administered using a Latin-square crossover design. A day without testing occurred between each test.

[17] = system: Neurokinin, NK1; experiment: NovaScreen competition binding; conditions: 1 µM
[18] = Pharmacokinetics in mice, plasma and brain by LC-MS/MS; assay type: in vivo, mouse; conditions: for half-life / Tmax: both sexes, mouse, plasma; for Tmax: read-out: Time of maximum plasma concentration
Method: Pharmacokinetic experiments with TC299423 were performed by Absorption Systems LP (Exton, PA, United States). […] Blood samples were taken and the brains were harvested 5 min, 15 min, 30 min, 1 h, 3 h, and 6 h after drug administration. […] Blood and brain samples were obtained at the same time points as above. Untreated plasma and blood samples were collected from three mice in the same cohort as the study animals for pre-dose (time 0) samples. Blood samples were collected by cardiac puncture and stored in tubes containing sodium heparin before being processed. Plasma was prepared and frozen for analysis. Brains were harvested, rinsed, patted dry, weighed, and frozen.
Matched matrix was used for preparation of calibration standards. Dosing solutions were normalized in matched matrix and analyzed in triplicate in the same analytical batch as the incurred samples.

[19] = system: Calcium Channel, Type L (Dihydropyridine Site); experiment: NovaScreen competition binding; conditions: 1 µM

T1 sequence (O70174 31-629): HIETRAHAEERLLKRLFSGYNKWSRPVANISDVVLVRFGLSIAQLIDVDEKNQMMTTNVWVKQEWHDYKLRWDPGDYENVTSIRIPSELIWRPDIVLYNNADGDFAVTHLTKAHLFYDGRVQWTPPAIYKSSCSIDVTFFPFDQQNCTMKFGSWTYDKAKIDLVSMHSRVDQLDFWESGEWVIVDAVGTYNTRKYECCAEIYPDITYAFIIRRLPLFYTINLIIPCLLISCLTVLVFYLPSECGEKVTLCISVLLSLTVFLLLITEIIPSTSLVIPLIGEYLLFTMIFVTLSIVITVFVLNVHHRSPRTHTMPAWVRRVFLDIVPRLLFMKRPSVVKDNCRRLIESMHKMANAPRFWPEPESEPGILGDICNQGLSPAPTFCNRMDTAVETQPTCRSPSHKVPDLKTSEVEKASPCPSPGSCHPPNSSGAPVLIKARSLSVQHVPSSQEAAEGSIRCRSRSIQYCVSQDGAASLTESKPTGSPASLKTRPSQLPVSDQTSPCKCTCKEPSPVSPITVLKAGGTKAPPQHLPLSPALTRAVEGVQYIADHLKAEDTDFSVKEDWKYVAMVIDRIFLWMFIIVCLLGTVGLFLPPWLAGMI
T1 sequence (Q9ERK7 26-501): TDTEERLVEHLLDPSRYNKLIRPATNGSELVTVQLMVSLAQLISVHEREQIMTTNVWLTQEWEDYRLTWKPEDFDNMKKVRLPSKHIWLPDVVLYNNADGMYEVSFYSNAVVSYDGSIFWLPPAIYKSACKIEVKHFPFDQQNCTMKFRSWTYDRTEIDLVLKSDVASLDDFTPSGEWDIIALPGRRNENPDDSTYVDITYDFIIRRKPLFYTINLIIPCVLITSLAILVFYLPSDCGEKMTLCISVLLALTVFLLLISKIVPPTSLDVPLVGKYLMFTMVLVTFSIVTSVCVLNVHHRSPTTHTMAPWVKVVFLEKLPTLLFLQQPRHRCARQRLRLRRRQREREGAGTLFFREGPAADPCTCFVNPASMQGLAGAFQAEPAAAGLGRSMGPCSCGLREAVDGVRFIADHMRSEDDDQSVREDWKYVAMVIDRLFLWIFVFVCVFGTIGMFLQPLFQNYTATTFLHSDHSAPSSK
α4β2* nAChRs, sequence (O70174 31-629): as the sequence (O70174 31-629) above
α4β2* nAChRs, sequence (Q9ERK7 26-501): as the sequence (Q9ERK7 26-501) above

C1=C(/c2cncnc2)CCCNCC/1 [TC299423, (E)-5-(pyrimidin-5-yl)-1,2,3,4,7,8-hexahydroazocine]
Emax ([1]; read-out: Neurotransmitter release % Efficacy, WT striatal synaptosomes, single component): 76 ± 5%
Emax ([1]; read-out: Neurotransmitter release % Efficacy, α5KO striatal synaptosomes): 112 ± 9%
EC50 ([1]; WT striatal synaptosomes, single component): 0.13 µM
EC50 ([1]; α5KO striatal synaptosomes): 0.6 µM
Hit [2]: FALSE
Inhibition ([2]; [3H]CGP 39653): 5.51%
Hit [3]: FALSE
Inhibition ([3]; [3H]Kainic acid): -6.93%
86Rb+ efflux Efficacy ([4]; Cortex): 39 ± 4%
EC50 ([4]; Cortex): 26 ± 21 µM
86Rb+ efflux Efficacy ([4]; Thalamus): 32 ± 10%
EC50 ([4]; Thalamus): 10 ± 10 µM
Hit [5]: FALSE
Inhibition ([5]; substrate Acetylthiocholine): 21.55%
Hit [6]: FALSE
Inhibition ([6]; [3H]Strychnine): -7.63%
Hit [7]: FALSE
Inhibition ([7]; [3H]Scopolamine, N-Methyl): -6.69%
Hit [8]: FALSE
Inhibition ([8]; [3H]Scopolamine, N-Methyl): -4.77%
Hit [9]: FALSE
Inhibition ([9]; [3H]Nisoxetine): 23.72%
Hit [10]: FALSE
Inhibition ([10]; [3H]-Diprenorphine): -6.43%
Hit [11]: FALSE
Inhibition ([11]; [3H]-7-MeOxy-Prazosin): -8.31%
Hit [12]: FALSE
Inhibition ([12]; [3H]7-OH-DPAT): -16.93%
Hit [13]: FALSE
Inhibition ([13]; [3H]-LSD): 1.24%
Hit [14]: FALSE
Inhibition ([14]; [3H]WIN 35,428): -5.87%
Hit [15]: FALSE
Inhibition ([15]; [3H]MK-912): 6.28%
Antinociceptive effect compared with varenicline [16]: significantly greater than that of varenicline
Hit [17]: FALSE
Inhibition ([17]; [3H]Substance P): 2.10%
Maximum brain-tissue concentration ([18]; 0.3 mg/kg ip): 22 ± 0.43 ng/g
Maximum plasma concentration ([18]; 0.3 mg/kg ip): 49 ± 18 ng/mL
Time of maximum brain-tissue concentration ([18]; 0.3 mg/kg ip): 0.5 h
Maximum brain-tissue concentration ([18]; 0.3 mg/kg ip, converted): 0.12 µM
Maximum plasma concentration ([18]; 0.3 mg/kg ip, converted): 0.26 µM
Maximum brain-tissue concentration ([18]; 1 mg/kg oral): 42 ± 17 ng/g
Maximum plasma concentration ([18]; 1 mg/kg oral): 38 ± 10 ng/mL
Time of maximum brain-tissue concentration ([18]; 1 mg/kg oral): 0.25 h
Maximum brain-tissue concentration ([18]; 1 mg/kg oral, converted): 0.22 µM
Maximum plasma concentration ([18]; 1 mg/kg oral, converted): 0.20 µM
half-life ([18]; 0.3 mg/kg ip): 10.2 min
Tmax ([18]; 0.3 mg/kg ip): 4.8 min
half-life ([18]; 1 mg/kg oral): 67.2 min
Tmax ([18]; 1 mg/kg oral): 15 min
Time remaining in the brain ([18]; following ip injection or oral administration): at least 60 min
Hit [19]: FALSE
Inhibition ([19]; [3H]Nitrendipine): -3.91%
